From publication PMC4503722, “Novel Phenotypic Outcomes Identified for a Public Collection of Approved Drugs from a Publicly Accessible Panel of Assays” (PLoS ONE, 2015)

Legend:
DLD-1 = experiment: cells; type: cell-based; conditions: for Basal_Viability ATP DLD-1 IC50/EC50: assay number 23
HT-29 = experiment: cells; type: cell-based; conditions: for Basal_Viability ATP HT-29 IC50/EC50: assay number 28
hJAK2 = biological target: T1, hJAK2 (Homo sapiens, UniProt O60674); experiment: Cerep LANCE kinase assay hJAK2 (S1 assay 33); type: biochemical; conditions: for hJAK2 LANCE IC50/EC50: assay number 33
T1 construct: purchased Cerep (LANCE kinase assay platform, contract assay)
T1 sequence (O60674 whole entry): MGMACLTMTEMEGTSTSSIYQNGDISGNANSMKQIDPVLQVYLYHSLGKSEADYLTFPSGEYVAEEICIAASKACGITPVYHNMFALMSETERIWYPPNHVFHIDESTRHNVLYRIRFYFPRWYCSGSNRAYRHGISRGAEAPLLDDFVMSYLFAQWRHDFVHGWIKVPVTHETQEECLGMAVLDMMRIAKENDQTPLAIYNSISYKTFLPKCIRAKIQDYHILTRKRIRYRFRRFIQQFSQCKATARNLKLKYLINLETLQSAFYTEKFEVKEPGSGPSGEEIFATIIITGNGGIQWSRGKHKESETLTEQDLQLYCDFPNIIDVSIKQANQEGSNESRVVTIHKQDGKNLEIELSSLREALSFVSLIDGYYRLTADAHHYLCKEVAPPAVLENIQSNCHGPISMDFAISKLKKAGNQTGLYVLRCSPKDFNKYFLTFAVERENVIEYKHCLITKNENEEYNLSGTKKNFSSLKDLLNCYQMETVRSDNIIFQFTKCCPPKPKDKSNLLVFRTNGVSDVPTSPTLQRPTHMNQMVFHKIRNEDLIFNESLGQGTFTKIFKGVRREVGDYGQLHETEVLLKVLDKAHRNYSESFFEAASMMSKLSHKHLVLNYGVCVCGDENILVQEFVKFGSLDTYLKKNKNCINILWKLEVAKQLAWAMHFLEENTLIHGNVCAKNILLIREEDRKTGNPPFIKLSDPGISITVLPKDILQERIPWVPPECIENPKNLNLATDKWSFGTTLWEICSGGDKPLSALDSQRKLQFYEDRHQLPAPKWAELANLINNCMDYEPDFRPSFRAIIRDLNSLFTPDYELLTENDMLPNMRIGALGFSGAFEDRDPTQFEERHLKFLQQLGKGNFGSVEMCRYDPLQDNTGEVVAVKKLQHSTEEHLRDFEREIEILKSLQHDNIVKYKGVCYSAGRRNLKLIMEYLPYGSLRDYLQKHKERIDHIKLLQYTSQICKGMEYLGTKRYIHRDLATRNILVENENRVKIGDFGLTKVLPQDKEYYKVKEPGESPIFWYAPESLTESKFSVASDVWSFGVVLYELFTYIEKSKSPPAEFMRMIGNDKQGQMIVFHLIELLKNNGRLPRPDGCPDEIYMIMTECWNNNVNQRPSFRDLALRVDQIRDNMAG

SNU-C1 = experiment: cells; type: cell-based; conditions: for Basal_Viability ATP SNU-C1 IC50/EC50: assay number 30
Colo320 = experiment: cells; type: cell-based; conditions: for Basal_Viability ATP Colo 320 IC50/EC50: assay number 27
RKO = experiment: cells; type: cell-based; conditions: for Basal_Viability ATP RKO IC50/EC50: assay number 29
[1] = system: alkaline phosphatase (ALP) activity in C2C12 cells; type: cell-based; conditions: concentration response; for WntCondMedia_Alk Phos C2C12 IC50/EC50: assay number 6
SW480 = experiment: cells; type: cell-based; conditions: for Basal_Viability ATP SW480 IC50/EC50: assay number 24
STC-1 cell line = type: cell-based, mouse; conditions: for mSTC-1 GLP1 Secretion IC50/EC50: assay number 13
NCI-H716 cells = experiment: cells; type: cell-based, Human; conditions: for hNCI-H716 GLP1 Secretion IC50/EC50: assay number 12
hFLT3 = biological target: T2, hFLT3 (Homo sapiens, UniProt P36888); experiment: Cerep LANCE kinase assay hFLT3 (S1 assay 35); type: biochemical; conditions: for hFLT3 LANCE IC50/EC50: assay number 35
T2 construct: purchased Cerep (LANCE kinase assay platform, contract assay)
T2 sequence (P36888 27-993): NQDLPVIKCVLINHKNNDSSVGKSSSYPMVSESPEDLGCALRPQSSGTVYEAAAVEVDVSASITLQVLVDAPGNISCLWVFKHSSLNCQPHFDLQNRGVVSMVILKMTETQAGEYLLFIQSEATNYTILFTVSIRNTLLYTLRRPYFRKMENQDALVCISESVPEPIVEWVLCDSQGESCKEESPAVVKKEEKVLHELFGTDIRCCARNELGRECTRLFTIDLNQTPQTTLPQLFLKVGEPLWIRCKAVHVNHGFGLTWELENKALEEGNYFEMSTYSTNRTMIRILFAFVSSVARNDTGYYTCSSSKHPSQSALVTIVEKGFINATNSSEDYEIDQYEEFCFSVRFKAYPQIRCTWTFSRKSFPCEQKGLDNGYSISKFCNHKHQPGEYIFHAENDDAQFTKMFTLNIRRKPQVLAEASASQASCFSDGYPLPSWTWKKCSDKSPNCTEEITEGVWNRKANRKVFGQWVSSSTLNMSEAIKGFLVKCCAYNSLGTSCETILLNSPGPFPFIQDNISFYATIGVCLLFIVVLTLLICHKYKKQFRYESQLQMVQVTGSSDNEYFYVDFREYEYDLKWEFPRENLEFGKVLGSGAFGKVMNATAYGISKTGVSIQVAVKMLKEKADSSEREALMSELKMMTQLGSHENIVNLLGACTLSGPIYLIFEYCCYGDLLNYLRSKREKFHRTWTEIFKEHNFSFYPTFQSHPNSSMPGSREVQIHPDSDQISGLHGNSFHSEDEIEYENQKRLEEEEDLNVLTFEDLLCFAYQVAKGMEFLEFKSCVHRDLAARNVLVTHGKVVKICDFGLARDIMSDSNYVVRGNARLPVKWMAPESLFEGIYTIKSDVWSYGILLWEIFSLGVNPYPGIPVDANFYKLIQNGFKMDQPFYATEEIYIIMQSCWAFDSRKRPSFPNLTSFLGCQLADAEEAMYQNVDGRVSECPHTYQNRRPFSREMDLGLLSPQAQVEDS

HeLa cells = experiment: cells; type: cell-based; conditions: for Hela CellCycMod PI 2N IC50/EC50: assay number 14; for Hela CellCycMod PI S Phase IC50/EC50: assay number 15; for Hela CellCycMod PI 4N IC50/EC50: assay number 16; for Hela CellCycMod PI MI IC50/EC50: assay number 17; for Hela CellCycMod PI Cell Number IC50/EC50: assay number 18
HCT116 = experiment: cells; type: cell-based; conditions: basal; for Basal_Viability ATP HCT116 IC50/EC50: assay number 25
[2] = system: nuclear β-catenin in C2C12 cells; experiment: cells; type: cell-based; conditions: concentration response; for WntCondMedia_bCatenin C2C12 IC50/EC50: assay number 5
hGSK3b = biological target: T3, hGSK3b (Homo sapiens, UniProt P49841); experiment: Cerep LANCE kinase assay hGSK3b (S1 assay 34); type: biochemical; conditions: for hGSK3b LANCE IC50/EC50: assay number 34
T3 construct: purchased Cerep (LANCE kinase assay platform, contract assay)
T3 sequence (P49841 whole entry): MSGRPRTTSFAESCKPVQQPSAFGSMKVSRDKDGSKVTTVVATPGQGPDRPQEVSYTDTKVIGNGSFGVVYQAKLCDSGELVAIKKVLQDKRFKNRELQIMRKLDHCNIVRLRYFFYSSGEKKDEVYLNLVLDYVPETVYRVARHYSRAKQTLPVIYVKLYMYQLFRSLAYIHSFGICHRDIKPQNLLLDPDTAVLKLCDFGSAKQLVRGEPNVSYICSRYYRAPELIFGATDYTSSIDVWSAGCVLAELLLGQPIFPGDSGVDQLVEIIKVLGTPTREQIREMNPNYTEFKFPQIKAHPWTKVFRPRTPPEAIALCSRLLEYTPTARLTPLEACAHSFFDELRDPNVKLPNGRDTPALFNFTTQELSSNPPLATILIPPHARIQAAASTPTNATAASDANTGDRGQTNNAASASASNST

hp70S6K1 (RPS6KB1) = biological target: T4, hp70S6K1 (RPS6KB1) (Homo sapiens, UniProt P23443); experiment: Cerep LANCE kinase assay hp70S6K1 (S1 assay 31); type: biochemical; conditions: for hp70S6K1 LANCE IC50/EC50: assay number 31
T4 construct: purchased Cerep (LANCE kinase assay platform, contract assay)
T4 sequence (P23443 whole entry): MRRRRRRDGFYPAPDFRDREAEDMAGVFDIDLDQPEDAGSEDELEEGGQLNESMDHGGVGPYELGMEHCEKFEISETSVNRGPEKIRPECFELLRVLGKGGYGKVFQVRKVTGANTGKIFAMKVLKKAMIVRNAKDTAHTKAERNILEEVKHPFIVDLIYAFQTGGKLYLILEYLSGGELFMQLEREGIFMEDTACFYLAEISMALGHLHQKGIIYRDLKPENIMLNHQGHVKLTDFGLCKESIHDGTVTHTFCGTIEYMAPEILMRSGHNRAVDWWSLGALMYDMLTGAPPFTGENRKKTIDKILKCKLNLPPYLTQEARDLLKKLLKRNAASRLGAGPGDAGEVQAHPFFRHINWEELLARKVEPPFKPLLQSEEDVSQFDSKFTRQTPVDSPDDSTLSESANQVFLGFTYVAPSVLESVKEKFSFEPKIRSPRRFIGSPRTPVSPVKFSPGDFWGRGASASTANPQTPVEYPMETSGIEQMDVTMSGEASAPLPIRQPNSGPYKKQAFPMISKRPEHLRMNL

hKDR = biological target: T5, hKDR (Homo sapiens, UniProt P35968); experiment: Cerep LANCE kinase assay hKDR (S1 assay 32); type: biochemical; conditions: for hKDR LANCE IC50/EC50: assay number 32
T5 construct: purchased Cerep (LANCE kinase assay platform, contract assay)
T5 sequence (P35968 20-1356): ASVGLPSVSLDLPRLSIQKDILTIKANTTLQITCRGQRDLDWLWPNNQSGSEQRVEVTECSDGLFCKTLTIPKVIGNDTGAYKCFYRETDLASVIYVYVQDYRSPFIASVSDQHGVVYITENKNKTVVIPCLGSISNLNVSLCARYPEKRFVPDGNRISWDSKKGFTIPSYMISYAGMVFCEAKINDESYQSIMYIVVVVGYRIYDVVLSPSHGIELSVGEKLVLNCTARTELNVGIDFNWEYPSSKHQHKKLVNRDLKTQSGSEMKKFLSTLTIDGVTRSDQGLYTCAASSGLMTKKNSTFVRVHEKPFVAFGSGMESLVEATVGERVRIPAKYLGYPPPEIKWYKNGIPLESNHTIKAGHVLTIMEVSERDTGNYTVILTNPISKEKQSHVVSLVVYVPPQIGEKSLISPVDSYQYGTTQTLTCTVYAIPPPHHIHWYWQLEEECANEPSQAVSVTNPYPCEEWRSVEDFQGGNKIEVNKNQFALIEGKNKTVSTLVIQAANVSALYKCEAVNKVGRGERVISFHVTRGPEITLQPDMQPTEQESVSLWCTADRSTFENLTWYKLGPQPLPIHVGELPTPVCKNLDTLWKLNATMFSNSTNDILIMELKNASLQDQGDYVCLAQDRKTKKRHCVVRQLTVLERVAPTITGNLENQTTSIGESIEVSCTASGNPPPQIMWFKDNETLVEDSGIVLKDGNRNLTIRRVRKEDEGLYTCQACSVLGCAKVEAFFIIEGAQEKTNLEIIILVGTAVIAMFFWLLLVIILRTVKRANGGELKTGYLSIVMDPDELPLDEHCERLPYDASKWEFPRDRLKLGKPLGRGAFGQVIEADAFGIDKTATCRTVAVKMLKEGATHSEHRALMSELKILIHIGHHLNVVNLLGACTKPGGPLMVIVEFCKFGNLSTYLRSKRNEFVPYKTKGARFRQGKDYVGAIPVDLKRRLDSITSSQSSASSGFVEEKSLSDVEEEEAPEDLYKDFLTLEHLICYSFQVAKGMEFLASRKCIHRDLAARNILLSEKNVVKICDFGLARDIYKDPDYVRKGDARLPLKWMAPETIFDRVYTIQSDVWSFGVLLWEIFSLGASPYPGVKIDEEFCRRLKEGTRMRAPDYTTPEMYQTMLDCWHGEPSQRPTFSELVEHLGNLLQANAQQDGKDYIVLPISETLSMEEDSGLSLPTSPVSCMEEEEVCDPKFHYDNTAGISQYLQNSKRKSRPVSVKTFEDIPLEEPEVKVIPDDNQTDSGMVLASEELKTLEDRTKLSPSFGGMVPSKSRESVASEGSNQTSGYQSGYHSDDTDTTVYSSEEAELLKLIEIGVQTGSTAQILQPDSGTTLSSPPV

[3] = system: ECFC/ADSC co-culture cell nuclei number
[4] = system: endothelial tube formation in co-cultures of ECFCs and ADSCs treated with VEGF; experiment: cells; type: cell-based, human
[5] = system: HCT116 cells treated with a GSK3β inhibitor; experiment: cells; type: cell-based

SMILES: Cc1cc2c(C(C)C)c(O)c(O)c(C=O)c2c(O)c1-c1c(C)cc2c(C(C)C)c(O)c(O)c(C=O)c2c1O [NCGC00016423-15]
- Basal_Viability ATP DLD-1 IC50/EC50 (DLD-1; basal): 0.8345 µM
- Basal_Viability ATP HT-29 IC50/EC50 (HT-29; basal): 1.4237 µM
- hJAK2 LANCE IC50/EC50 (hJAK2): > 20 µM
- Basal_Viability ATP SNU-C1 IC50/EC50 (SNU-C1; basal): 0.3538 µM
- Basal_Viability ATP Colo 320 IC50/EC50 (Colo320; basal): 1.3794 µM
- Basal_Viability ATP RKO IC50/EC50 (RKO; basal): 0.9156 µM
- WntCondMedia_Alk Phos C2C12 IC50/EC50 [1]: > 20 µM
- Basal_Viability ATP SW480 IC50/EC50 (SW480; basal): 0.9563 µM
- mSTC-1 GLP1 Secretion IC50/EC50 (STC-1 cell line): > 40 µM
- hNCI-H716 GLP1 Secretion IC50/EC50 (NCI-H716 cells): 23.4306 µM
- hFLT3 LANCE IC50/EC50 (hFLT3): > 20 µM
- Hela CellCycMod PI 2N IC50/EC50 (HeLa cells; 2N): > 10 µM
- Hela CellCycMod PI S Phase IC50/EC50 (HeLa cells): > 10 µM
- Hela CellCycMod PI 4N IC50/EC50 (HeLa cells; 4N): > 10 µM
- Hela CellCycMod PI MI IC50/EC50 (HeLa cells; MI): > 10 µM
- Hela CellCycMod PI Cell Number IC50/EC50 (HeLa cells): 3.7083 µM
- Basal_Viability ATP HCT116 IC50/EC50 (HCT116): 0.7844 µM
- WntCondMedia_bCatenin C2C12 IC50/EC50 [2]: 3.4859 µM
- hGSK3b LANCE IC50/EC50 (hGSK3b): > 20 µM
- hp70S6K1 LANCE IC50/EC50 (hp70S6K1 (RPS6KB1)): > 20 µM
- hKDR LANCE IC50/EC50 (hKDR): > 20 µM

SMILES: COC(=O)Nc1nc2ccc(Sc3ccccc3)cc2[nH]1 [NCGC00016855-10]
- IC50/EC50, VEGF_ADSC\ECFC Angio Hoechst NucArea (assay number 3) [3]: > 10 µM
- IC50/EC50, Basal_Viability ATP DLD-1 (assay number 23) (DLD-1; basal): 0.06726 µM
- IC50/EC50, Basal_Viability ATP HT-29 (assay number 28) (HT-29; basal): > 20 µM
- IC50/EC50, hJAK2 LANCE (assay number 33) (hJAK2): > 20 µM
- IC50/EC50, Basal_Viability ATP SNU-C1 (assay number 30) (SNU-C1; basal): > 20 µM
- IC50/EC50, VEGF_ADSC\ECFC Angio CD31 TubeArea (assay number 2) [4]: 0.2067 µM
- IC50/EC50, Basal_Viability ATP Colo 320 (assay number 27) (Colo320; basal): > 20 µM
- IC50/EC50, Basal_Viability ATP RKO (assay number 29) (RKO; basal): 0.001 µM
- IC50/EC50, WntCondMedia_Alk Phos C2C12 (assay number 6) [1]: 0.4382 µM
- IC50/EC50, Basal_Viability ATP SW480 (assay number 24) (SW480; basal): > 20 µM
- IC50/EC50, GSK3b inh pretreated_Viability ATP HCT116 (assay number 26) ([5]; GSK3b inh pretreated): 0.003 µM
- IC50/EC50, mSTC-1 GLP1 Secretion (assay number 13) (STC-1 cell line; concentration response): > 20 µM
- IC50/EC50, hNCI-H716 GLP1 Secretion (assay number 12) (NCI-H716 cells; concentration response): > 40 µM
- IC50/EC50, hFLT3 LANCE (assay number 35) (hFLT3): > 20 µM
- IC50/EC50, Hela CellCycMod PI 2N (assay number 14) (HeLa cells; 2N): 0.2042 µM
- IC50/EC50, Hela CellCycMod PI 4N (assay number 16) (HeLa cells; 4N): 0.195 µM
- IC50/EC50, Hela CellCycMod PI Cell Number (assay number 18) (HeLa cells; Cell Number): 0.0097 µM
- IC50/EC50, Hela CellCycMod PI MI (assay number 17) (HeLa cells; MI): 0.2276 µM
- IC50/EC50, Hela CellCycMod PI S Phase (assay number 15) (HeLa cells; S Phase): > 10 µM
- IC50/EC50, Basal_Viability ATP HCT116 (assay number 25) (HCT116): 0.001 µM
- IC50/EC50, WntCondMedia_bCatenin C2C12 (assay number 5) [2]: 4.8413 µM
- IC50/EC50, hGSK3b LANCE (assay number 34) (hGSK3b): > 20 µM
- IC50/EC50, hp70S6K1 LANCE (assay number 31) (hp70S6K1 (RPS6KB1)): > 20 µM
- IC50/EC50, hKDR LANCE (assay number 32) (hKDR): > 20 µM

SMILES: C[C@@]12C(=O)OC(=O)[C@]1(C)C1CCC2O1 [NCGC00025212-08]
- VEGF_ADSC\ECFC Angio Hoechst NucArea IC50/EC50 [3]: 8.333 µM
- hJAK2 LANCE IC50/EC50 (hJAK2): > 20 µM
- VEGF_ADSC\ECFC Angio CD31 TubeArea IC50/EC50 [4]: 1.2254 µM
- WntCondMedia_Alk Phos C2C12 IC50/EC50 [1]: 1.4897 µM
- mSTC-1 GLP1 Secretion IC50/EC50 (STC-1 cell line): 13.7125 µM
- hNCI-H716 GLP1 Secretion IC50/EC50 (NCI-H716 cells): 6.6758 µM
- hFLT3 LANCE IC50/EC50 (hFLT3): > 20 µM
- Hela CellCycMod PI 2N IC50/EC50 (HeLa cells; 2N): > 10 µM
- Hela CellCycMod PI S Phase IC50/EC50 (HeLa cells): > 10 µM
- Hela CellCycMod PI 4N IC50/EC50 (HeLa cells; 4N): > 10 µM
- Hela CellCycMod PI MI IC50/EC50 (HeLa cells; MI): 8.4996 µM
- Hela CellCycMod PI Cell Number IC50/EC50 (HeLa cells): 1.0094 µM
- WntCondMedia_bCatenin C2C12 IC50/EC50 [2]: > 20 µM
- hGSK3b LANCE IC50/EC50 (hGSK3b): > 20 µM
- hp70S6K1 LANCE IC50/EC50 (hp70S6K1 (RPS6KB1)): > 20 µM
- hKDR LANCE IC50/EC50 (hKDR): > 20 µM

SMILES: CCCCCCCCCCCCCC[N+](C)(C)C.[Br-] [NCGC00166121-03]
- VEGF_ADSC\ECFC Angio Hoechst NucArea IC50/EC50 [3]: 6.684 µM
- Basal_Viability ATP DLD-1 IC50/EC50 (DLD-1): 0.4746 µM
- Basal_Viability ATP HT-29 IC50/EC50 (HT-29): 1.32 µM
- hJAK2 LANCE IC50/EC50 (hJAK2): > 20 µM
- Basal_Viability ATP SNU-C1 IC50/EC50 (SNU-C1): 0.00517 µM
- VEGF_ADSC\ECFC Angio CD31 TubeArea IC50/EC50 [4]: 1.9016 µM
- Basal_Viability ATP Colo 320 IC50/EC50 (Colo320): 2.516 µM
- Basal_Viability ATP RKO IC50/EC50 (RKO): 0.1473 µM
- WntCondMedia_Alk Phos C2C12 IC50/EC50 [1]: > 20 µM
- Basal_Viability ATP SW480 IC50/EC50 (SW480): 0.9328 µM
- GSK3b inh pretreated_Viability ATP HCT116 IC50/EC50 ([5]; assay number 26, GSK3b inhibitor pretreated): 0.754 µM
- mSTC-1 GLP1 Secretion IC50/EC50 (STC-1 cell line): > 40 µM
- hNCI-H716 GLP1 Secretion IC50/EC50 (NCI-H716 cells): 18.5931 µM
- hFLT3 LANCE IC50/EC50 (hFLT3): > 20 µM
- Hela CellCycMod PI 2N IC50/EC50 (HeLa cells; 2N): > 10 µM
- Hela CellCycMod PI S Phase IC50/EC50 (HeLa cells): > 10 µM
- Hela CellCycMod PI 4N IC50/EC50 (HeLa cells; 4N): > 10 µM
- Hela CellCycMod PI MI IC50/EC50 (HeLa cells; MI): > 10 µM
- Hela CellCycMod PI Cell Number IC50/EC50 (HeLa cells): 3.3211 µM
- Basal_Viability ATP HCT116 IC50/EC50 (HCT116): 2.287 µM
- WntCondMedia_bCatenin C2C12 IC50/EC50 [2]: > 20 µM
- hGSK3b LANCE IC50/EC50 (hGSK3b): > 20 µM
- hp70S6K1 LANCE IC50/EC50 (hp70S6K1 (RPS6KB1)): > 20 µM
- hKDR LANCE IC50/EC50 (hKDR): > 20 µM
